Set-up in all cases: scale not given: the % may be the effect or the level left
The target in test [1] is T1, Mitogen-activated protein kinase kinase kinase 12 (Homo sapiens) (UniProt Q12852).
T1 sequence (whole entry): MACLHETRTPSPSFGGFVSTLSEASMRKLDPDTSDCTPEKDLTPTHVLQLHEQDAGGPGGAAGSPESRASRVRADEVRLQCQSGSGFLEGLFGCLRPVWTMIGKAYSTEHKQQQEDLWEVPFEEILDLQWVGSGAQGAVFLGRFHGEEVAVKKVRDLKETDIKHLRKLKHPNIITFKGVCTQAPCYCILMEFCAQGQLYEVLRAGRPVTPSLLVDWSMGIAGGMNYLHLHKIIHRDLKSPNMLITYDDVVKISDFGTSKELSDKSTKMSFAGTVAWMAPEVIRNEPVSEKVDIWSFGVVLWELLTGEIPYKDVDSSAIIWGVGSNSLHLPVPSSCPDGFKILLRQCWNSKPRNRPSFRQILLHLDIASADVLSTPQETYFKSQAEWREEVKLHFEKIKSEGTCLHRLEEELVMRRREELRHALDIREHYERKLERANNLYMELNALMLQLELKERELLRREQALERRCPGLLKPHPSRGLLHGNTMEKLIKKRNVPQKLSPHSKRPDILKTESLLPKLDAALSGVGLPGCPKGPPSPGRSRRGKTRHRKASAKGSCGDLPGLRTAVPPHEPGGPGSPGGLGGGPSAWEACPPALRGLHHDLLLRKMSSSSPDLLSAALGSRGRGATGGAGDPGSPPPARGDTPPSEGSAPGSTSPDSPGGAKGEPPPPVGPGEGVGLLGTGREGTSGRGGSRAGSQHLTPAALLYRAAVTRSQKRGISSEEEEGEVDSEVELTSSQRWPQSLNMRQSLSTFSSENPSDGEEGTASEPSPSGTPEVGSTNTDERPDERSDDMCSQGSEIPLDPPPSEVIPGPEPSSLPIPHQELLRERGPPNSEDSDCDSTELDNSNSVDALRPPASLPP
Kind of test: Inhibition of human DLK/MAP3K12 assessed as enzyme activity at 1 uM using myelin basic protein as substrate preincubated for 20 mins followed by [gamma-33P]-ATP addition and measured after 120 mins by radiometric Hot-SpotSM Kinase assay relative to control.

The target in test [2] is T2, Ephrin type-B receptor 1 (Homo sapiens) (UniProt P54762).
T2 sequence (whole entry): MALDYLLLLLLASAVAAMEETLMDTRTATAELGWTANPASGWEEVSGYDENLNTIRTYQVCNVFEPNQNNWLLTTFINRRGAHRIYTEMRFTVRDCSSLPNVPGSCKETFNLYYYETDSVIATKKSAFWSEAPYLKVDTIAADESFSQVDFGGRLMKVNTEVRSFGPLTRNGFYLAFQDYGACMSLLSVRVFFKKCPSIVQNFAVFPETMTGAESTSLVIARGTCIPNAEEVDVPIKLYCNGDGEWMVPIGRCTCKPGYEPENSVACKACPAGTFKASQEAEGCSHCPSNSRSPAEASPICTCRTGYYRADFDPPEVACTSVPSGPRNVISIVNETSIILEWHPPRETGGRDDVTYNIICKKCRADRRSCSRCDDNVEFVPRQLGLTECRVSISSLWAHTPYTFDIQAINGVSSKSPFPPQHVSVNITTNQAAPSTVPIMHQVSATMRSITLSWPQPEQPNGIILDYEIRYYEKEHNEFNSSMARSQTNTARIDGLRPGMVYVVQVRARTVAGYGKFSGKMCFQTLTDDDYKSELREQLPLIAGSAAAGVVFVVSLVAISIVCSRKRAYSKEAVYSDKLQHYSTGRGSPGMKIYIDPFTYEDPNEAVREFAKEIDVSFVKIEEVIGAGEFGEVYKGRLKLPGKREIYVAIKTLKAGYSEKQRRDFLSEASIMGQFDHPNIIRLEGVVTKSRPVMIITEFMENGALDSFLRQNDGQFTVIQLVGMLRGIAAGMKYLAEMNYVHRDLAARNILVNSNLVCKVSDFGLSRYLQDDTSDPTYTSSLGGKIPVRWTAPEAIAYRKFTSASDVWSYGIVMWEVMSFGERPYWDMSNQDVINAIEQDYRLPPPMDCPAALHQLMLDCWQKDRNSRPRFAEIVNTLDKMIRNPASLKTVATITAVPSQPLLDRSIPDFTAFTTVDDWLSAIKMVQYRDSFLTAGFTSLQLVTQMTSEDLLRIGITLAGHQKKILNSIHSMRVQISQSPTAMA
The experiment in a line: Inhibition of human EPHB1 assessed as enzyme activity at 1 uM using poly[Glu:Tyr] (4:1) as substrate preincubated for 20 mins followed by [gamma-33P]-ATP addition and measured after 120 mins by radiometric Hot-SpotSM Kinase assay relative to control.

Test [3] deals with T3, Serine/threonine-protein kinase ULK3 (Homo sapiens) (UniProt Q6PHR2).
T3 sequence (whole entry): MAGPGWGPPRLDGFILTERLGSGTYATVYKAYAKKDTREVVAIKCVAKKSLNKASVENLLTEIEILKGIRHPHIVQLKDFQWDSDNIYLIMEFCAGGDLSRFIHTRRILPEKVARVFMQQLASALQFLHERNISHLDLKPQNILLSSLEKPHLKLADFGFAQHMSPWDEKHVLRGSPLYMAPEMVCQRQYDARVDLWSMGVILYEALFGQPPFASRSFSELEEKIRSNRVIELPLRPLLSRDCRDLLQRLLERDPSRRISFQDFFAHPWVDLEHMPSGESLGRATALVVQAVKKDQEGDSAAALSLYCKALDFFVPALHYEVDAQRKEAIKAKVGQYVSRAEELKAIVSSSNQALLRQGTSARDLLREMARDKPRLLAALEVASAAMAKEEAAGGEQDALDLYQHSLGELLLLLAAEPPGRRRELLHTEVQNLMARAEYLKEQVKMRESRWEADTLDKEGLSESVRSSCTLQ
Kind of test: Inhibition of human ULK3 assessed as enzyme activity at 1 uM using myelin basic protein as substrate preincubated for 20 mins followed by [gamma-33P]-ATP addition and measured after 120 mins by radiometric Hot-SpotSM Kinase assay relative to control.

Test [4] has as its target Fibroblast growth factor receptor 1 (Homo sapiens) (UniProt P11362). The experiment in a line: Inhibition of human FGFR1 assessed as enzyme activity at 1 uM using poly[Glu:Tyr] (4:1) as substrate preincubated for 20 mins followed by [gamma-33P]-ATP addition and measured after 120 mins by radiometric Hot-SpotSM Kinase assay relative to control.
Test [5] has as its target Mitogen-activated protein kinase 14 (Homo sapiens) (UniProt Q16539). The experiment in a line: Inhibition of human P38a assessed as enzyme activity at 1 uM using myelin basic protein as substrate preincubated for 20 mins followed by [gamma-33P]-ATP addition and measured after 120 mins by radiometric Hot-SpotSM Kinase assay relative to control.

Mitogen-activated protein kinase 14 (Homo sapiens), sequence (Q16539 whole entry): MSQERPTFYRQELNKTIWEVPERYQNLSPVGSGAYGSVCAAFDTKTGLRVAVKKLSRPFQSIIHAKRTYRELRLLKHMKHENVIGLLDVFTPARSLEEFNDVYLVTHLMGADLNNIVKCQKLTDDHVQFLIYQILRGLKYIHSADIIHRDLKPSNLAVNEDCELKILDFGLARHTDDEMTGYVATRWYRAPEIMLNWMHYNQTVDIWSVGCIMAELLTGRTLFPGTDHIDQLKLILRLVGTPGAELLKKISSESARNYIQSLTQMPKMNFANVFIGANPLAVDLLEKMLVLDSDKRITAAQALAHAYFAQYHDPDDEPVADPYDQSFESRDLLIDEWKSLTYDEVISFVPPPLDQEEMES
Fibroblast growth factor receptor 1 (Homo sapiens), sequence (P11362 22-822 limits assumed): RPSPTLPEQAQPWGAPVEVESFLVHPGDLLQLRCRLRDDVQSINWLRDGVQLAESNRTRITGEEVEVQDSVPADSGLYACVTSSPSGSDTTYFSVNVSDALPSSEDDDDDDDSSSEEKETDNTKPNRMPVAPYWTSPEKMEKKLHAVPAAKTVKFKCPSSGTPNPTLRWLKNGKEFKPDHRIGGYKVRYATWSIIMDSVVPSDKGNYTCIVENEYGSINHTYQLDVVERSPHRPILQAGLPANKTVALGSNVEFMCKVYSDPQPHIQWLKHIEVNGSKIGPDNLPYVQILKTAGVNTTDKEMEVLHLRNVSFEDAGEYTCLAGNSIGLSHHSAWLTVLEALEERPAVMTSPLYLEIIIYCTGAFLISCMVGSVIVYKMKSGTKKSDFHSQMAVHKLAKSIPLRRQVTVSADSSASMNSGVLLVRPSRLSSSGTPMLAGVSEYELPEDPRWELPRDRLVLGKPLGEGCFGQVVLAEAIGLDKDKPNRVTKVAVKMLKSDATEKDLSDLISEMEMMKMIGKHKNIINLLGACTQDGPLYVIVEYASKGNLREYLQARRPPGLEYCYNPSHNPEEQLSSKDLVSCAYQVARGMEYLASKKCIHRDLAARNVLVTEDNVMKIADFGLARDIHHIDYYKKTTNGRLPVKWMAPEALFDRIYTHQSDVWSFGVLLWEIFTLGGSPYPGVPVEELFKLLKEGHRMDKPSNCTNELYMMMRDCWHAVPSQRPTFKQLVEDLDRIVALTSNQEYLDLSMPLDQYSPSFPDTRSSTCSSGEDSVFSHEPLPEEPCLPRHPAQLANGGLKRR

In the case of `C[C@H](Nc1ncnc2nc[nH]c12)c1cc2cccc(Cl)c2c(=O)n1-c1ccccc1`, the Activity is 107% in test [1]; 93.4% in test [2]; 93.2% in test [3]; 95.7% in test [4]; 94.5% in test [5].

For the compound `CC[C@H](Nc1ncnc2[nH]cnc12)c1nc2cccc(F)c2c(=O)n1-c1ccccc1`, the Activity in test [1] stood at 110%; in test [2], 90.6%; in test [3] it was 89.3%; in test [4], 98%; in test [5], 98.8%.

Take `CC(C)Oc1ccc(-c2nn([C@@H](C)c3oc4ccc(F)cc4c(=O)c3-c3cccc(F)c3)c3ncnc(N)c23)cc1F` [UMBRALISIB]: the Activity was 127% in test [1]; 95.5% in test [2]; 93.8% in test [3]; 99.5% in test [4]; 96.9% in test [5].

The values above are taken from ChEMBL document CHEMBL5715954, “Silencing c-Myc translation as a therapeutic strategy through targeting PI3Kδ and CK1ε in hematological malignancies” (Blood, 2017).
